Data published in patent publication US9889146B2, “Benzoxaborole compounds and uses thereof” (priority 2012, dated 2018).
Converted amounts (≈) assume the structure as drawn. Where two headings read alike, the source gives them in different places.

Key:
Assay type in all cases: cell-based
[1] = tested on: E. coli ATCC 25922 wild type and mutants; assay: MIC in M9 minimal media; conditions: Escherichia coli, read-out: MICs in M9 minimal media
Procedure: (§1) Spontaneous Resistance Frequency was determined in vitro for GSK2251052 and the resistance mutants in E. coli ATCC 25922, K. pneumoniae ATCC 13883, and P. aeruginosa ATCC 27853 strains were characterized. GSK2251052 was prepared as described in U.S. Pat. No. 7,816,344 (the entire contents of which are hereby incorporated by reference herein). LB broth, Mueller Hinton II broth (adjusted), and Difco noble agar were obtained from Becton Dickinson (Cockeysville, Md., USA). M9 minimal broth containing 1×M9 salt, 0.5 μg/ML thiamine, 1 mM MgSO4, 0.1 mM CaCl2, 2% glucose, was obtained from Teknova (Hollister, Calif., USA). Antibacterial agents ciprofloxacin, ceftazidime, chloramphenicol, gentamycin, kanamycin, polymixin B, tobramycin and trimethoprim, and amino acids were obtained from Sigma Chemicals (St. Louis, Mo., USA). Strains were obtained from ATCC (Manassas, Va., USA).
(§2) Susceptibility tests were performed following the recommendations for aerobic bacteria (M7-A7) from the Clinical and Laboratories Standards Institute (CLSI).
(§3) The aminoacyl-tRNA synthetase enzyme, LeuRS, ensures the correct amino acid, leucine, is attached to tRNA^Leu. The LeuRS synthetic active site is capable of aminoacylating tRNA^Leu with amino acids structural similar to leucine (norvaline, norleucine, isoleucine and methionine). These mischarged tRNA^Leu are hydrolyzed by the editing domain, thus preventing the deleterious incorporation of incorrect amino acids into the growing polypeptide. The laboratory generated mutants were further tested for their ability to grow in defined media with exogenously added amino acids. Norvaline and norleucine, structurally similar to leucine, were tested in M9 minimal media. […]

[2] = tested on: K. pneumoniae ATCC 13883 wild type and mutants; assay: MIC in M9 minimal media; conditions: Klebsiella pneumoniae, read-out: MICs in M9 minimal media
Procedure: as §1, §2, §3

[3] = tested on: P. aeruginosa ATCC 27853 wild type and mutants; assay: MIC in M9 minimal media; conditions: Pseudomonas aeruginosa, read-out: MICs in M9 minimal media
Procedure: as §1, §2, §3

[4] = tested on: Escherichia coli 1161435 parent and mutant strains B4, B26 and B35; assay: Sensitivity to leucine analogs in MH and M9 media
P. aeruginosa = assay: In vitro activity against P. aeruginosa clinical isolates; conditions: P. aeruginosa, 2,008 clinical isolates; GSK2251052 based on potential susceptible breakpoint of ≦4 μg/mL
Procedure: GSK2251052 was tested for activity against P. aeruginosa, and its activity was compared to other antibiotics of known activity. The results are shown below in Tables 2a and 2b. Of 2,008 clinical isolates tested (from 2009-2010 subjects, of which 40% were from North America) greater than 90% were susceptible to GSK2251052 based on a potential susceptible breakpoint of ≦4 μg/mL.

| Structure (SMILES) | MIC (sensitivity to leucine analogs) ([4]; 1161435 Parent, M9) | MIC (sensitivity to leucine analogs) ([4]; 1161435 Parent, MH) | MIC (sensitivity to leucine analogs) ([4]; B4 (P339L), M9) | MIC (sensitivity to leucine analogs) ([4]; B4 (P339L), MH) | MIC (sensitivity to leucine analogs) ([4]; B26 (R334H), M9) | MIC (sensitivity to leucine analogs) ([4]; B26 (R334H), MH) | MIC (sensitivity to leucine analogs) ([4]; B35 (D251N), M9) | MIC (sensitivity to leucine analogs) ([4]; B35 (D251N), MH) | also measured |
| --- | --- | --- | --- | --- | --- | --- | --- | --- | --- |
| CCCC[C@H](N)C(=O)O [Norleucine, L-Norleucine] | 32 µg/mL | > 128 µg/mL | 16 µg/mL | > 128 µg/mL | 8 µg/mL | > 128 µg/mL | 16 µg/mL | > 128 µg/mL | MIC ([1]; ATCC25922, E 101(leuRS Y246H)): 2 µg/mL (≈ 15.2 µM); MIC ([1]; ATCC25922, E 102(leuRS D345G)): 4 µg/mL (≈ 30.5 µM); MIC ([1]; ATCC25922, E 107(leuRS G229S)): 4 µg/mL (≈ 30.5 µM); MIC ([1]; ATCC25922, E. coli ATCC25922): 4 µg/mL (≈ 30.5 µM); MIC ([2]; ATCC13883, K 104(leuRS D345Y)): 16 µg/mL (≈ 122 µM); MIC ([2]; ATCC13883, K 105(leuRS G229R)): 32 µg/mL (≈ 244 µM); MIC ([2]; ATCC13883, K 107(leuRS S227F)): 64 µg/mL (≈ 488 µM); MIC ([2]; ATCC13883, K 108(leuRS T248P)): 64 µg/mL (≈ 488 µM); MIC ([2]; ATCC13883, K 110(leuRS V338L)): > 64 µg/mL; MIC ([2]; ATCC13883, Klebsiella pneumoniae ATCC13883): 32 µg/mL (≈ 244 µM); MIC ([3]; ATCC27853, P 101 (leuRS T256P)): > 64 µg/mL; MIC ([3]; ATCC27853, P 106 (leuRS V342M)): > 64 µg/mL; MIC ([3]; ATCC27853, P 108 (leuRS T252P)): > 64 µg/mL; MIC ([3]; ATCC27853, P. aeruginosa ATCC27853): > 64 µg/mL; sensitivity of the mutants ([4]; mutant strains in M9 minimal media): some sensitivity |
| NC(CC1CCCC1)C(=O)O (racemic) [3-Cyclopentyl-DL-Alanine] | > 128 µg/mL | > 128 µg/mL | > 128 µg/mL | > 128 µg/mL | > 128 µg/mL | > 128 µg/mL | > 128 µg/mL | > 128 µg/mL | – |
| NCC[C@H](O)C(=O)N[C@@H]1C[C@H](N)[C@@H](O[C@H]2O[C@H](CN)[C@@H](O)[C@H](O)[C@H]2O)[C@H](O)[C@H]1O[C@H]1O[C@H](CO)[C@@H](O)[C@H](N)[C@H]1O [Amikacin] | – | – | – | – | – | – | – | – | % susceptible (P. aeruginosa): 90.2% |
| CN(C)CC(N)C(=O)O.Cl.Cl (racemic) [4-Aza-DL-Leucine dihydrochloride] | 64 µg/mL | > 128 µg/mL | 64 µg/mL | > 128 µg/mL | 64 µg/mL | > 128 µg/mL | 32 µg/mL | > 128 µg/mL | – |
| C=CCC(N)C(=O)O (racemic) [DL-2-Allylglycine] | 16 µg/mL | > 128 µg/mL | 16 µg/mL | > 128 µg/mL | 16 µg/mL | > 128 µg/mL | 32 µg/mL | > 128 µg/mL | – |
| CC(=O)CC(N)C(=O)O (racemic) [DL-oxonorvaline] | 128 µg/mL | > 256 µg/mL | 64 µg/mL | > 256 µg/mL | 64 µg/mL | > 256 µg/mL | 128 µg/mL | > 256 µg/mL | – |
| CC[C@H](C)[C@H](N)C(=O)O [L-Isoleucine] | > 128 µg/mL | > 128 µg/mL | > 128 µg/mL | > 128 µg/mL | > 128 µg/mL | > 128 µg/mL | > 128 µg/mL | > 128 µg/mL | – |
